Data set [1] concerns the target T1, human Edg-1 (S1P1) (Homo sapiens, UniProt P21453).
T1 construct: expressed in transfected cells; host or cells: HEK-293
In words: S1P1 binding assay: inhibition of [33P]-S1P binding to membrane fraction of HEK-293 cells transferred with the human Edg-1 (S1P1) gene. As to conditions: for IC50: [33P]-S1P 0.1 nM, human Edg-1 (S1P1) HEK-293 membrane fraction, 1 h at 30° C., read-out: IC50 (concentration at which binding in the absence of the test compound was inhibited by 50%). The essentials:
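With 0.1 nM [33P]-S1P and compound (10^−5M single point, or a concentration range for IC50) in 0.1% DMSO, membrane fractions from human Edg-1-expressing HEK-293 cells were treated for one hour at 30° C in 20 mM Tris-HCl pH 7.4 with NaF, deoxypyridoxine and BSA. Bound label was measured after filtration, with untransfected-cell background subtracted.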

The mark [2] stands for this setting: test compound at 10 μM, inhibition of [33P]-S1P binding to the membrane fraction of HEK-293 cells expressing human Edg-1 (S1P1).
The mark [3] stands for this setting: test compound 10 μM, inhibition of [33P]-S1P binding, membrane fraction.

The text below walks through data of US8022091B2, “Triazole derivative” (Taisho Pharmaceutical Co., Ltd., priority 2006, dated 2011).

A word on the melting point: it is the temperature of the solid-liquid transition. In general, inhibition refers to the drop in the measured response relative to a control, in per cent.

T1 sequence (P21453 whole entry): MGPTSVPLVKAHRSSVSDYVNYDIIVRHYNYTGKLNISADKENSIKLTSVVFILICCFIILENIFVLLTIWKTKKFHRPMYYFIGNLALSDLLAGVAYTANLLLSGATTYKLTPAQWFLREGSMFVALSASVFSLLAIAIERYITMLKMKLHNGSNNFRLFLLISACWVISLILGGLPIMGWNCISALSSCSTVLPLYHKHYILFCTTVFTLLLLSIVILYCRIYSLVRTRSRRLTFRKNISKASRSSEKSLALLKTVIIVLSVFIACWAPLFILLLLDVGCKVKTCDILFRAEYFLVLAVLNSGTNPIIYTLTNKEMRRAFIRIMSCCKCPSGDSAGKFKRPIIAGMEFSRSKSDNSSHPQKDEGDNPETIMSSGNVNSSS

Take `CCn1c(Oc2cccc(NS(C)(=O)=O)c2)nnc1[C@@H](C)NS(=O)(=O)c1ccc2c(Cl)cccc2c1` [Compound 148]: the melting point fell in the range of 154.5 to 155.5 °C. Besides, the IC50 in data set [1] was found to be 0.0019 µM. For the same molecule, in data set [1] (setting [2]), the inhibition at 10 µM turned out to be 102%.

`CCCCc1ccc(Oc2nnc([C@@H](C)NS(=O)(=O)c3ccc(Cl)c(Cl)c3)n2CC)cc1` [Compound 32]: the melting point was in the range of 147 to 148 °C. In data set [1], the IC50 was at most 0.035 µM. The inhibition at 10 µM in data set [1] (setting [2]) was found to be 104%.

Consider `CCn1c(Oc2cccc(N(C)C)c2)nnc1[C@@H](C)NS(=O)(=O)c1ccc(Cl)c(Cl)c1` [Compound 28], for which the melting point is 165 to 170 °C. For the same molecule, the IC50 in data set [1] came out at 0.0031 µM. Besides, in data set [1] (setting [2]), the inhibition at 10 µM was found to be 104%.

For `CCn1c(Oc2ccc(Cl)c(Cl)c2)nnc1[C@@H](C)NS(=O)(=O)c1ccc(Cl)c(Cl)c1` [Compound 13], the melting point was 152 to 156 °C. Moreover, the IC50 in data set [1] is at most 0.035 µM. In data set [1] (setting [2]), the inhibition at 10 µM worked out at 102%.

`CCn1c(Oc2ccc3cc[nH]c3c2)nnc1[C@@H](C)NS(=O)(=O)c1ccc2cccc(Cl)c2c1` [Compound 670] showed a melting point of 214.5 to 218 °C. Further, the IC50 in data set [1] is 0.0052 µM. Besides, the inhibition at 10 µM in data set [1] (setting [3]) came to 101%.

The molecule `CCn1c(Oc2ccc(OC(F)(F)F)cc2)nnc1[C@@H](C)NS(=O)(=O)c1ccc(Cl)c(Cl)c1` [Compound 33] showed a melting point of 173.5 to 174.5 °C. In addition, in data set [1] (setting [2]), the inhibition at 10 µM came out at 101%.

On to `CCn1c(Oc2cccc(NS(=O)(=O)N(C)C)c2)nnc1[C@@H](C)NS(=O)(=O)c1ccc(Cl)c(Cl)c1` [Compound 101], for which the melting point fell in the range of 142 to 143 °C. For the same molecule, the IC50 in data set [1] is at most 0.035 µM. The inhibition at 10 µM in data set [1] (setting [2]) was determined as 101%.

`CCn1c(Oc2ccc(OCc3ccccc3)cc2)nnc1[C@@H](C)NS(=O)(=O)c1ccc(Cl)c(Cl)c1` [Compound 23] showed a melting point of 173 to 176 °C. Moreover, the IC50 in data set [1] was at most 0.035 µM. For the same molecule, in data set [1] (setting [2]), the inhibition at 10 µM worked out at 96.7%.

Regarding `CCn1c(Oc2cccc(N3CCN(C)CC3)c2)nnc1[C@@H](C)NS(=O)(=O)c1ccc(C)c(Cl)c1` [Compound 133], the melting point was in the range of 164 to 169.5 °C. Further, the IC50 in data set [1] is at most 0.01 µM. Further, in data set [1] (setting [2]), the inhibition at 10 µM was found to be 101%.

For `CCn1c(Oc2cccc(-n3cnnc3)c2)nnc1[C@@H](C)NS(=O)(=O)c1ccc(Cl)c(Cl)c1` [Compound 89], the melting point lay within 101 to 103 °C. Also, the inhibition at 10 µM in data set [1] (setting [2]) is 90.3%.

`CCn1c(Oc2ccc(F)c(Cl)c2)nnc1[C@@H](C)NS(=O)(=O)c1ccc(Cl)c(Cl)c1` [Compound 31] had a melting point of 143 to 146 °C. In addition, in data set [1] (setting [2]), the inhibition at 10 µM was 101%.

On to `CCn1c(Oc2cc(OC)cc(OC)c2)nnc1[C@@H](C)NS(=O)(=O)c1ccc(Cl)c(Cl)c1` [Compound 20], for which the melting point fell in the range of 118 to 120 °C. In addition, the inhibition at 10 µM in data set [1] (setting [2]) amounted to 97.4%.

`CCn1c(Oc2cccc(N3CCN(C(C)C)CC3)c2)nnc1[C@@H](C)NS(=O)(=O)c1ccc2cccc(Cl)c2c1` [Compound 669] showed a melting point of 131.5 to 132.5 °C. For the same molecule, the IC50 in data set [1] is at most 0.01 µM. Further, in data set [1] (setting [3]), the inhibition at 10 µM amounted to 100%.

Molecule `CCNC(=O)Nc1cccc(Oc2nnc([C@@H](C)NS(=O)(=O)c3ccc(Cl)c(Cl)c3)n2CC)c1` [Compound 92, 3,4-Dichloro-N-((R)-1-[4-ethyl-5-[3-(3-ethylureido)-phenoxy]-4H-[1,2,4]triazol-3-yl]-ethyl)-benzenesulfonamide] yielded a melting point of 118 to 120 °C. Further, the inhibition at 10 µM in data set [1] (setting [2]) was 92.1%.

`CCn1c(Oc2cccc(N3CCCCC3)c2)nnc1[C@@H](C)NS(=O)(=O)c1ccc(Cl)c(Cl)c1` [Compound 73] gave a melting point of 185 to 187 °C. The IC50 in data set [1] turned out to be 0.0022 µM. Also, the inhibition at 10 µM in data set [1] (setting [2]) was 103%.

With `CCn1c(Oc2cccc(N3CCN(C)CC3)c2)nnc1[C@@H](C)NS(=O)(=O)c1ccc2c(I)cccc2c1` [Compound 691], the melting point is 180 to 182 °C. Besides, in data set [1], the IC50 is 0.0026 µM. In data set [1] (test compound 10 μM, inhibition of [33P]-S1P binding, membrane fraction, 10 µM), the “Binding assay (membrane) % inhibition (10 μM)” value was 98.5%.

As to `CCn1c(Oc2cccc(NC(=O)N(C)C)c2)nnc1[C@@H](C)NS(=O)(=O)c1ccc(Cl)c(Cl)c1` [Compound 97, 3,4-Dichloro-N-((R)-1-[5-[3-(3,3-dimethylureido)-phenoxy]-4-ethyl-4H-[1,2,4]triazol-3-yl]-ethyl)-benzenesulfonamide], the melting point fell in the range of 158 to 159 °C. For the same molecule, the inhibition at 10 µM in data set [1] (setting [2]) came out at 93%.

With `CCn1c(Oc2cccc(N3CCN(C)CC3)c2)nnc1[C@@H](C)NS(=O)(=O)c1ccc2c(Br)cccc2c1` [Compound 667], the melting point is 207 to 208 °C. Further, in data set [1], the IC50 was at most 0.01 µM. Also, the inhibition at 10 µM in data set [1] (setting [3]) was 99.2%.

As for `CCn1c(Oc2ccc(OC)cc2)nnc1[C@@H](C)NS(=O)(=O)c1ccc2ccccc2c1` [Compound 140], the melting point fell in the range of 110 to 119 °C. Besides, the IC50 in data set [1] is at most 0.01 µM. The inhibition at 10 µM in data set [1] (setting [2]) came out at 102%.

The molecule `CCn1c(Oc2ccc(C)c(C)c2)nnc1[C@@H](C)NS(=O)(=O)c1ccc(Cl)c(Cl)c1` [Compound 14] displayed a melting point of 161 to 162.5 °C. Further, the IC50 in data set [1] came out at 0.0064 µM. Further, the inhibition at 10 µM in data set [1] (setting [2]) worked out at 99.5%.

`CCCn1c(Oc2ccc(C)cc2)nnc1[C@@H](C)NS(=O)(=O)c1ccc(Cl)c(Cl)c1` [Compound 59] showed a melting point of 169.5 to 170.5 °C. Moreover, the inhibition at 10 µM in data set [1] (setting [2]) came out at 94.3%.

The molecule `CCn1c(Oc2ccc(F)cc2)nnc1C1(NS(=O)(=O)c2ccc(Cl)c(Cl)c2)CC1` [Compound 685] displayed a melting point of 255 to 260 °C. For the same molecule, in data set [1] (setting [3]), the inhibition at 10 µM amounted to 65.1%.

`CCn1c(Oc2cccc(NS(C)(=O)=O)c2)nnc1[C@@H](C)NS(=O)(=O)c1ccc(Cl)c(Cl)c1` [Compound 102, 3,4-Dichloro-N-[(R)-1-[4-ethyl-5-(3-methanesulfonylamino-phenoxy)-4H-[1,2,4]triazol-3-yl]-ethyl]-benzenesulfonamide] had a melting point of 117 to 118 °C. In addition, in data set [1], the IC50 was at most 0.035 µM. Moreover, the inhibition at 10 µM in data set [1] (setting [2]) turned out to be 104%.

Take `COc1ccc(Oc2nnc([C@@H](C)NS(=O)(=O)c3ccc(Cl)c(Cl)c3)n2C2CC2)cc1` [Compound 38]: the melting point fell in the range of 148.5 to 150 °C. Besides, in data set [1], the IC50 turned out to be 0.0117 µM. Further, in data set [1] (setting [2]), the inhibition at 10 µM turned out to be 105%.

`CCn1c(Oc2cccc(N3CCNCC3)c2)nnc1[C@@H](C)NS(=O)(=O)c1ccc(Cl)c(Cl)c1` [Compound 683, 3,4-Dichloro-N-[(R)-1-[4-ethyl-5-(3-piperazin-1-yl-phenoxy)-4H-[1,2,4]triazol-3-yl]-ethyl]-benzenesulfonamide] showed a melting point of 175 to 178 °C. In data set [1], the IC50 was at most 0.01 µM. Moreover, the inhibition at 10 µM in data set [1] (setting [3]) came out at 100%.

In turn, `CCn1c(Oc2cccc(N3CCN(C)CC3)c2)nnc1[C@@H](C)NS(=O)(=O)c1ccc2ccc(Cl)cc2c1` [Compound 665] came in with a melting point of 197 to 201 °C. For the same molecule, the IC50 in data set [1] is at most 0.035 µM. In data set [1] (setting [3]), the inhibition at 10 µM was found to be 100%.

In the case of `CCn1c(Oc2cc(C)c(C)c(C)c2)nnc1[C@@H](C)NS(=O)(=O)c1ccc(Cl)c(Cl)c1` [Compound 18], the melting point fell in the range of 189 to 194 °C. Besides, the IC50 in data set [1] was at most 0.035 µM. For the same molecule, the inhibition at 10 µM in data set [1] (setting [2]) came to 102%.
